Patent publication US9802960B2 (MILLENNIUM PHARMACEUTICALS, INC., priority 2014, dated 2017)

Molecular target: Human VPS34 (Homo sapiens (Human), UniProt Q8NEB9)
Experiment: Human VPS34 enzyme assay (Adapta TR-FRET)
Type: biochemical
Conditions: compound concentration 1.11 μM; for inhibition at 1.11 µM: read-out: Percent Inhibition

Chain of Human VPS34 (Q8NEB9 whole entry): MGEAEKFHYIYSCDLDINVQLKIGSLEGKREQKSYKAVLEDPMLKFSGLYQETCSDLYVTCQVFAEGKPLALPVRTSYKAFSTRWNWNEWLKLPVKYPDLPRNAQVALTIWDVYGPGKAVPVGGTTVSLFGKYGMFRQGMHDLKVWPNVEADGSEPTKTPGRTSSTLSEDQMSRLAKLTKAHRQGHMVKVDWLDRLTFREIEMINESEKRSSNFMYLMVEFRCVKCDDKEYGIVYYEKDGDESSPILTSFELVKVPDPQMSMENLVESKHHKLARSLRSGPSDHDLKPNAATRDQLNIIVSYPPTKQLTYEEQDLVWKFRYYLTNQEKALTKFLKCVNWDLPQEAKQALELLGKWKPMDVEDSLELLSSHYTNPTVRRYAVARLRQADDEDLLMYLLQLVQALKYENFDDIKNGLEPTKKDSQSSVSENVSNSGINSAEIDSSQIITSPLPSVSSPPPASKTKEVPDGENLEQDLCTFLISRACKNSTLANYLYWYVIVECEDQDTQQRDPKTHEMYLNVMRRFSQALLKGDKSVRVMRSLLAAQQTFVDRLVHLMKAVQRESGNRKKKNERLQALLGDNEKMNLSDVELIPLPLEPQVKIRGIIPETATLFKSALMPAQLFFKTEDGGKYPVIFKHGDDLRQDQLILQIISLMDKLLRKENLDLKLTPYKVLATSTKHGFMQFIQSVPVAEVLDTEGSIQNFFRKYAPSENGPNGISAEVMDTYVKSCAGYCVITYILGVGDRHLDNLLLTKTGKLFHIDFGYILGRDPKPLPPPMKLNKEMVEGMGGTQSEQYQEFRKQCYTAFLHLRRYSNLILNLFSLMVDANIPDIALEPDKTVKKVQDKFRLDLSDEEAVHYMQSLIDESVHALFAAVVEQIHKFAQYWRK

| SMILES | inhibition at 1.11 µM [%] | Percent Inhibition [%] |
| --- | --- | --- |
| CC(=O)Nc1cc(-c2cnc(C)c(NS(=O)(=O)c3ccc(F)cc3F)c2)cc[n+]1[O-] [Compound I-219, N-[4-(5-{[(2,4-difluorophenyl)sulfonyl]amino}-6-methylpyridin-3-yl)-1-oxidopyridin-2-yl]acetamide] | 92 |  |
| COc1ncc(-c2ccnc(NC(C)=O)c2)cc1NS(=O)(=O)N(C)C [Compound I-220, N-{5-[(dimethylsulfamoyl)amino]-6-methoxy-3,4′-bipyridin-2′-yl}acetamide] | 99 |  |
| COc1nccc(Nc2cc(-c3cnc(Cl)c(NS(=O)(=O)c4ccc(F)cc4F)c3C)ccn2)n1 [Compound I-225, N-{6-chloro-2′-[(2-methoxypyrimidin-4-yl)amino]-4-methyl-3,4′-bipyridin-5-yl}-2,4-difluorobenzene sulfonamide] | > 99 |  |
| CC(=O)Nc1cc(-c2cnc(Cl)c(NS(=O)(=O)c3cc(F)ccc3F)c2C)ccn1 [Compound I-227, N-(6-chloro-5-{[(2,5-difluorophenyl)sulfonyl]amino}-4-methyl-3,4′-bipyridin-2′-yl)acetamide] | > 99 |  |
| Cc1ncc(-c2ccnc(Nc3ccc(C#N)cn3)c2)cc1NS(=O)(=O)c1ccc(F)cc1F [Compound I-228, N-{2′-[(5-cyanopyridin-2-yl)amino]-6-methyl-3,4′-bipyridin-5-yl}-2,4-difluorobenzene sulfonamide] | > 99 |  |
| Cc1nc(Nc2cc(-c3cnc(C)c(NS(=O)(=O)N(C)C)c3)ccn2)ccc1C#N [Compound I-229, N-{2′-[(5-cyano-6-methylpyridin-2-yl)amino]-6-methyl-3,4′-bipyridin-5-yl}-N,N-dimethylsulfuric diamide] | > 99 |  |
| Nc1cncc(-c2ccnc(N)c2)c1 [Compound I-231, 3,4′-bipyridine-2′,5-diamine] | 26 |  |
| Cc1ncc(-c2ccnc(Nc3nc4ccccc4o3)c2)cc1NS(=O)(=O)c1ccc(F)cc1F [Compound I-233, N-[2'-(1,3-benzoxazol-2-ylamino)-6-methyl-3,4′-bipyridin-5-yl]-2,4-difluorobenzene sulfonamide] | 96 |  |
| Cc1ccc2ccc(Nc3cc(-c4cnc(C)c(NS(=O)(=O)c5ccc(F)cc5F)c4)ccn3)nc2n1 [Compound I-235, 2,4-difluoro-N-{6-methyl-2′-[(7-methyl-1,8-naphthyridin-2-yl)amino]-3,4′-bipyridin-5-yl}benzenesulfonamide] | 92 |  |
| CC(=O)Nc1cc(-c2cnc(Cl)c(NS(=O)(=O)N(C)C)c2C)ccn1 [Compound I-236, N-{6-chloro-5-[(dimethylsulfamoyl)amino]-4-methyl-3,4′-bipyridin-2′-yl}acetamide] | 98 |  |
| Cc1ncc(-c2ccnc(Nc3ccnc(C(F)(F)F)n3)c2)cc1NS(=O)(=O)c1ccc(F)cc1F [Compound I-237, 2,4-difluoro-N-(6-methyl-2′-{[2-(trifluoromethyl)pyrimidin-4-yl]amino}-3,4′-bipyridin-5-yl)benzenesulfonamide] | 91 |  |
| Cc1nc(Nc2cc(-c3cnc(Cl)c(NS(=O)(=O)c4ccc(F)cc4F)c3C)ccn2)ccc1C#N [Compound I-238, N-{6-chloro-2′-[(5-cyano-6-methylpyridin-2-yl)amino]-4-methyl-3,4′-bipyridin-5-yl}-2,4-difluorobenzenesulfonamide] |  | 93 |
| Cc1ncc(-c2ccnc(Nc3ccncn3)c2)cc1NS(=O)(=O)c1ccc(F)cc1F [Compound I-239] | > 99 |  |
| CC(=O)Nc1cc(-c2cnc(Cl)c(NS(=O)(=O)c3ccccc3Cl)c2C)ccn1 [Compound I-240, N-(6-chloro-5-{[(2-chlorophenyl)sulfonyl]amino}-4-methyl-3,4′-bipyridin-2′-yl)acetamide] | > 99 |  |
| COC(=O)Nc1cc(-c2cnc(C)c(NS(=O)(=O)N(C)C)c2)ccn1 [Compound I-241, methyl {5-[(dimethylsulfamoyl)amino]-6-methyl-3,4′-bipyridin-2′-yl}carbamate] | 96 |  |
| CC(=O)Nc1cc(-c2cnc(Cl)c(NS(=O)(=O)c3ccc(Cl)cc3Cl)c2C)ccn1 [Compound I-243, N-(6-chloro-5-{[(2,4-dichlorophenyl)sulfonyl]amino}-4-methyl-3,4′-bipyridin-2′-yl)acetamide] | 85 |  |
| Cc1ncc(-c2ccnc(NC(=O)C3CC3(F)F)c2)cc1NS(=O)(=O)N(C)C (stereo not shown) [Compound I-244, N-{5-[(dimethylsulfamoyl)amino]-6-methyl-3,4′-bipyridin-2′-yl}-2,2-difluorocyclopropanecarboxamide] | 82 |  |
| CC(=O)Nc1cc(-c2cnc(C)c(NS(=O)(=O)c3ccc(F)cc3F)c2C)ccn1 [Compound I-247, N-(5-{[(2,4-difluorophenyl)sulfonyl]amino}-4,6-dimethyl-3,4′-bipyridin-2′-yl)acetamide] | > 99 |  |
| COc1ncc(-c2ccnc(NC(C)=O)c2)c(C)c1NS(=O)(=O)c1ccc(F)cc1F [Compound I-248, N-(5-{[(2,4-difluorophenyl)sulfonyl]amino}-6-methoxy-4-methyl-3,4′-bipyridin-2′-yl)acetamide] | > 99 |  |
| CC(=O)Nc1cc(-c2cnc(Cl)c(NS(=O)(=O)c3ccc(F)cc3F)c2C)c(C)cn1 [Compound I-250, N-(6-chloro-5-{[(2,4-difluorophenyl)sulfonyl]amino}-4,5′-dimethyl-3,4′-bipyridin-2′-yl)acetamide] | 99 |  |
| CC(=O)Nc1cc(-c2cnc(Cl)c(NS(=O)(=O)c3ccccc3F)c2C)ccn1 [Compound I-251, N-(6-chloro-5-{[(2-fluorophenyl)sulfonyl]amino}-4-methyl-3,4′-bipyridin-2′-yl)acetamide] | 97 |  |
| Cc1c(-c2ccnc(NC(=O)C3CC3(F)F)c2)cnc(Cl)c1NS(=O)(=O)c1ccc(F)cc1F (stereo not shown) [Compound I-254, N-(6-chloro-5-{[(2,4-difluorophenyl)sulfonyl]amino}-4-methyl-3,4′-bipyridin-2′-yl)-2,2-difluorocyclopropanecarboxamide] | 77 |  |

Continued, values first:

| inhibition at 1.11 µM [%] | Percent Inhibition [%] | SMILES |
| --- | --- | --- |
| > 99 |  | Cc1ncc(-c2ccnc(Nc3ccncn3)c2)cc1NS(=O)(=O)N(C)C [Compound I-217, N,N-dimethyl-Y-[6-methyl-2′-(pyrimidin-4-ylamino)-3,4′-bipyridin-5-yl]sulfuric diamide] |
| 97 |  | Cc1nccc(Nc2cc(-c3cnc(C)c(C(=O)N4CC(F)(F)C4)c3)ccn2)n1 [Compound I-221, (3,3-difluoroazetidin-1-yl){6-methyl-2′-[(2-methylpyrimidin-4-yl)amino]-3,4′-bipyridin-5-yl}methanone] |
| 93 |  | CNc1ncc(-c2ccnc(Nc3ccncn3)c2)cc1C(=O)N(C)C12CC(C1)C2 [Compound I-222, N-(bicyclo[1.1.1]pent-1-yl)-N-methyl-6-(methylamino)-2′-(pyrimidin-4-ylamino)-3,4′-bipyridine-5-carboxamide] |
| 95 |  | Cc1nccc(Nc2cc(-c3cnc(C)c(C(=S)N4CCC4)c3)ccn2)n1 [Compound I-223, Azetidin-1-yl{6-methyl-2′-[(2-methylpyrimidin-4-yl)amino]-3,4′-bipyridin-5-yl}methanethione] |
| 99 |  | COc1ncc(-c2ccnc(Nc3ccnc(C)n3)c2)cc1S(=O)(=O)NC1CCC1 [Compound I-224, N-cyclobutyl-6-methoxy-2′-[(2-methylpyrimidin-4-yl)amino]-3,4′-bipyridine-5-sulfonamide] |
| 94 |  | Cc1nccc(Nc2cc(-c3cnc(Cl)c(N)c3C)ccn2)n1 [Compound I-226, 6-chloro-4-methyl-N-2′-(2-methylpyrimidin-4-yl)-3,4′-bipyridine-2′,5-diamine] |
| 97 |  | COc1nccc(Nc2cc(-c3cnc(N)c(C(=O)N(C)C45CC(C4)C5)c3)ccn2)n1 [Compound I-230, 6-amino-N-(bicyclo[1.1.1]pent-1-yl)-2′-((2-methoxypyrimidin-4-yl)amino)-N-methyl-[3,4′-bipyridine]-5-carboxamide] |
| 81 |  | Cc1nccc(Nc2cc(-c3cnc(Cl)c(C(=O)N4CCC4)c3)ccn2)n1 [Compound I-232, azetidin-1-yl{6-chloro-2′-[(2-methylpyrimidin-4-yl)amino]-3,4′-bipyridin-5-yl}methanone] |
| 90 |  | Cc1nccc(Nc2cc(-c3cncc(C(=O)N(C)C45CC(C4)C5)c3)ccn2)n1 [Compound I-234, N-(bicyclo[1.1.1]pent-1-yl)-N-methyl-2′-[(2-methylpyrimidin-4-yl)amino]-3,4′-bipyridine-5-carboxamide] |
| 88 |  | Cc1nccc(Nc2cc(-c3cnc(Cl)c(S(=O)(=O)NC45CC(C4)C5)c3)ccn2)n1 [Compound I-242, N-(bicyclo[1.1.1]pent-1-yl)-6-chloro-2′-[(2-methylpyrimidin-4-yl)amino]-3,4′-bipyridine-5-sulfonamide] |
| > 99 |  | COc1nccc(Nc2cc(-c3cncc(C(=O)N(C)C45CC(C4)C5)c3)ccn2)n1 [Compound I-245, N-(bicyclo[1.1.1]pent-1-yl)-2′-[(2-methoxypyrimidin-4-yl)amino]-N-methyl-3,4′-bipyridine-5-carboxamide] |
| 91 |  | Cc1ncc(-c2ccnc(Nc3ccnc(C4CC4)n3)c2)cc1C(=O)N1CCC1 [Compound I-246, azetidin-1-yl{2′-[(2-cyclopropylpyrimidin-4-yl)amino]-6-methyl-3,4′-bipyridin-5-yl}methanone] |
| 85 |  | Cc1nccc(Nc2cc(-c3cnc(C)c(NC(=O)c4ccc(F)cc4F)c3)ccn2)n1 [Compound I-249, 2,4-difluoro-N-{6-methyl-2′-[(2-methylpyrimidin-4-yl)amino]-3,4′-bipyridin-5-yl}benzamide] |
| > 99 |  | COc1ncc(-c2ccnc(Nc3ccnc(C)n3)c2)cc1C(=O)N(C)c1ccc(F)cc1F [Compound I-252, N-(2,4-difluorophenyl)-6-methoxy-N-methyl-2′-[(2-methylpyrimidin-4-yl)amino]-3,4′-bipyridine-5-carboxamide] |
| 96 |  | Cc1nccc(Nc2cc(-c3cnc(C)c(C(=O)O)c3)ccn2)n1 [Compound I-253, 6-methyl-2′-((2-methylpyrimidin-4-yl)amino)-[3,4′-bipyridine]-5-carboxylic acid] |
